Reference: US20030118627A1 (DABUR RESEARCH FOUNDATION, priority 2001, published 2003)

How the values were obtained:
[1] = test system: MOLT 4; experiment: MTT cytotoxicity assay, MOLT 4 leukemia; assay type: cell-based; settings: Homo sapiens, MOLT 4 Leukemia, read-out: Percent cytotoxicity; for cytotoxicity at 1000 µM: 1.0 mM; for cytotoxicity at 2500 µM: 2.5 mM; for cytotoxicity at 4000 µM: 4 mM; for cytotoxicity at 5000 µM: 5 mM; for cytotoxicity at 10000 µM: 10 mM
Description: (§1) Briefly, a […] MTT cytotoxicity assay was performed, which is based on the principle of uptake of MTT (3-(4,5-dimethylthiazol-2-yl)-2,5-diphenyl tetrazolium bromide), a tetrazolium salt, by the metabolically active cells where it is metabolized by active mitochondria into a blue colored formazan product that is read spectrophoto-metrically. MTT was dissolved in phosphate buffered saline with a pH of 7.4 to obtain an MTT concentration of 5 mg/ml; the resulting mixture was filtered through a 0.22 micron filter to sterilize and remove a small amount of insoluble residue. For each type of tumor cell, 20,000 to 50,000 cells were seeded in a 96-well culture plate and incubated with the combination in a CO2 incubator for 24 hours. […] The assay was terminated after 24 hours by adding 100 ug (20 ul) of MTT to each well, then incubating for additional one hour, and finally adding 50 ul of 10% SDS-0.01N HCl to each well to lyse the cells and dissolve formazan. After incubating for one hour, the plate was read spectrophotometrically at 540 nm and the percentage cytotoxicity calculated.

[2] = test system: PA 1; experiment: MTT cytotoxicity assay, PA 1 ovary; assay type: cell-based; settings: Homo sapiens; for cytotoxicity at 1000 µM / cytotoxicity at 2500 µM / cytotoxicity at 4000 µM / cytotoxicity at 5000 µM / cytotoxicity at 10000 µM: PA 1 Ovary, read-out: Percent cytotoxicity; for cytotoxicity at 1000 µM: 1.0 mM; for cytotoxicity at 2500 µM: 2.5 mM; for cytotoxicity at 4000 µM: 4 mM; for cytotoxicity at 5000 µM: 5 mM; for cytotoxicity at 10000 µM: 10 mM
Description: as §1

[3] = test system: PTC; experiment: MTT cytotoxicity assay, PTC colon; assay type: cell-based; settings: Homo sapiens, read-out: Percent cytotoxicity; for cytotoxicity at 1000 µM: 1.0 mM; for cytotoxicity at 2500 µM: 2.5 mM; for cytotoxicity at 4000 µM: 4 mM; for cytotoxicity at 5000 µM: 5 mM; for cytotoxicity at 10000 µM: 10 mM
Description: as §1

[4] = test system: Miapaca2; experiment: MTT cytotoxicity assay, Miapaca2 pancreas; assay type: cell-based; settings: Homo sapiens, read-out: Percent cytotoxicity; for cytotoxicity at 1000 µM: MIA PaCa-2, 1.0 mM; for cytotoxicity at 2500 µM: MIA PaCa-2, 2.5 mM; for cytotoxicity at 4000 µM: MIA PaCa-2, 4 mM; for cytotoxicity at 5000 µM: MIA PaCa-2, 5 mM; for cytotoxicity at 10000 µM: MIA PaCa-2, 10 mM
Description: as §1

[5] = test system: DU145; experiment: MTT cytotoxicity assay, DU145 prostate; assay type: cell-based; settings: Homo sapiens, read-out: Percent cytotoxicity; for cytotoxicity at 1000 µM: DU-145, 1.0 mM; for cytotoxicity at 2500 µM: DU-145, 2.5 mM; for cytotoxicity at 4000 µM: DU-145, 4 mM; for cytotoxicity at 5000 µM: DU-145, 5 mM; for cytotoxicity at 10000 µM: DU-145, 10 mM
Description: as §1

[6] = test system: L132; experiment: MTT cytotoxicity assay, L132 lung; assay type: cell-based; settings: Homo sapiens, read-out: Percent cytotoxicity; for cytotoxicity at 1000 µM: 1.0 mM; for cytotoxicity at 2500 µM: 2.5 mM; for cytotoxicity at 4000 µM: 4 mM; for cytotoxicity at 5000 µM: 5 mM; for cytotoxicity at 10000 µM: 10 mM
Description: as §1

[7] = test system: MCF7; experiment: MTT cytotoxicity assay, MCF7 breast; assay type: cell-based; settings: Homo sapiens, MCF7 breast, read-out: Percent cytotoxicity; for cytotoxicity at 1000 µM: 1.0 mM; for cytotoxicity at 2500 µM: 2.5 mM; for cytotoxicity at 4000 µM: 4 mM; for cytotoxicity at 5000 µM: 5 mM; for cytotoxicity at 10000 µM: 10 mM
Description: as §1

[8] = test system: Swiss albino mice; settings: both, mouse, in vivo, po, 15 days
Description: Acute toxicity studies were performed using the oral route of administration.
A batch of 5 female and 5 male mice each was administered the test substance by oral route. […] Another batch of 5 female and 5 male served as control.
Observations were made three times on the day of dosing and twice daily thereafter for the remainder of 14 days or until reversible toxic signs or symptoms subsided. All gross visible toxic signs and symptoms were recorded. Body weights were recorded prior to dosing and weekly thereafter.

[9] = test system: 293; experiment: MTT cytotoxicity assay, 293 kidney; assay type: cell-based; settings: Homo sapiens, HEK293, 24 h, read-out: ED50 values of cytotoxicity
Description: as §1

Compound | cytotoxicity at 1000 µM [1] [%] | cytotoxicity at 2500 µM [1] [%] | cytotoxicity at 4000 µM [1] [%] | cytotoxicity at 5000 µM [1] [%] | cytotoxicity at 10000 µM [1] [%] | cytotoxicity at 1000 µM [2] [%] | cytotoxicity at 2500 µM [2] [%] | cytotoxicity at 4000 µM [2] [%] | cytotoxicity at 5000 µM [2] [%] | cytotoxicity at 10000 µM [2] [%] | cytotoxicity at 1000 µM [3] [%] | cytotoxicity at 2500 µM [3] [%] | cytotoxicity at 4000 µM [3] [%] | cytotoxicity at 5000 µM [3] [%] | cytotoxicity at 10000 µM [3] [%] | cytotoxicity at 1000 µM [4] [%] | cytotoxicity at 2500 µM [4] [%] | cytotoxicity at 4000 µM [4] [%] | cytotoxicity at 5000 µM [4] [%] | cytotoxicity at 10000 µM [4] [%] | other results
CC(=O)OC(C(C)=O)N1C(=O)CCC1C(=O)OCc1ccccc1 (centres unmarked) [MGC-6, N-(1-acetoxy-2-ketopropyl)-benzylpyroglutamate] | 41.9 ± 4.2 | 61.9 ± 5.3 | 84.9 ± 7.4 | 84.8 ± 3.9 | 87.1 ± 6.8 | 42.9 ± 4.9 | 63.9 ± 4.9 | 86.9 ± 6.9 | 88.7 ± 5.9 | 84 ± 7.5 | 38.9 ± 3.9 | 59.7 ± 5.3 | 75.9 ± 4 | 80.6 ± 7.4 | 86.4 ± 4 | 0 | 23.7 ± 2 | 51.9 ± 5.2 | 58.5 ± 5 | 67.4 ± 3 | cytotoxicity at 1000 µM [5]: 37.8 ± 2.6%; cytotoxicity at 2500 µM [5]: 56.9 ± 4.2%; cytotoxicity at 4000 µM [5]: 78.9 ± 7.4%; cytotoxicity at 5000 µM [5]: 81.5 ± 7.3%; cytotoxicity at 10000 µM [5]: 85.9 ± 6.9%; cytotoxicity at 1000 µM [6]: 2.7 ± 0.2%; cytotoxicity at 2500 µM [6]: 34.8 ± 5.8%; cytotoxicity at 4000 µM [6]: 53.9 ± 5%; cytotoxicity at 5000 µM [6]: 67.9 ± 5%; cytotoxicity at 10000 µM [6]: 74.7 ± 7.3%; cytotoxicity at 1000 µM [7]: 0%; cytotoxicity at 2500 µM [7]: 0%; cytotoxicity at 4000 µM [7]: 0%; cytotoxicity at 5000 µM [7]: 13.9 ± 1.1%; cytotoxicity at 10000 µM [7]: 23.9 ± 2.9%; safe dose [8]: 75 mg
CCOC(=O)C1CCC(=O)N1C(OC(C)=O)C(C)=O (centres unmarked) [MGC-8] | 40.3 ± 2.9 | 58.3 ± 4.9 | 65 ± 5.9 | 75.2 ± 2.9 | 81.9 ± 5.2 | 38 ± 3.7 | 56 ± 4.8 | 64.5 ± 5.3 | 69 ± 2.1 | 71.7 ± 6.3 | 32.2 ± 3.9 | 48.6 ± 2.9 | 67.7 ± 4.8 | 76.3 ± 1 | 79.6 ± 3 | 0 | 61 ± 2.5 | 89 ± 4.5 | 88 ± 4.5 | 86 ± 5 | IC50 ([2]; 24 h, PA 1 Ovarian, read-out: ED50 values of cytotoxicity): 1.8 ± 0.7 mM; cytotoxicity at 1000 µM [5]: 43 ± 3.8%; cytotoxicity at 2500 µM [5]: 67.4 ± 5.2%; cytotoxicity at 4000 µM [5]: 69.9 ± 7.9%; cytotoxicity at 5000 µM [5]: 73.5 ± 3%; cytotoxicity at 10000 µM [5]: 79.3 ± 1.9%; cytotoxicity at 1000 µM [6]: 8 ± 1.5%; cytotoxicity at 2500 µM [6]: 12 ± 3.3%; cytotoxicity at 4000 µM [6]: 25 ± 3.5%; cytotoxicity at 5000 µM [6]: 35 ± 4.1%; cytotoxicity at 10000 µM [6]: 45 ± 5.1%; cytotoxicity at 1000 µM [7]: 16 ± 4.1%; cytotoxicity at 2500 µM [7]: 36 ± 3.5%; cytotoxicity at 4000 µM [7]: 70 ± 4.5%; cytotoxicity at 5000 µM [7]: 73 ± 6%; cytotoxicity at 10000 µM [7]: 87 ± 7%; IC50 [9]: 2.9 ± 0.5 mM; safe dose [8]: 100 mg
